Experiments:
[1] = Amount of butyrate produced by culture in PYA medium supplemented with acetate and lactate; details: PYA medium (33 mM sodium acetate) with 40 mM sodium lactate, 37° C. 24 hours, minus PYA without lactate
Experimental: Each bacterial solution cultured in a PYGA liquid medium under the same conditions as those described in the preceding paragraph 1) was inoculated at 1% to a PYA medium containing 33 mM sodium acetate and further supplemented with 40 mM sodium lactate, followed by anaerobic culture at 37° C. for 24 hours. After the completion of the culture, the organic acid concentration in the culture solution was analyzed by ion-exclusion HPLC. The analysis conditions were the same as those described in the preceding paragraph 1). The amount of butyrate produced was calculated according to (Expression 2). Amount of butyrate produced=(Amount of butyrate produced by culture for 24 hours in a PYA medium supplemented with 40 mM sodium lactate)−(Amount of butyrate produced by culture for 24 hours in a PYA medium without 40 mM sodium lactate) (Expression 2)

mouse C57BL/6J = experiment: Multiple oral dose test of YIT 12355 to mouse given indigestible saccharide; assay type: in vivo; details: for Total cell count: DAPI counting method; for Cell count, A. hadrus: quantitative PCR; for Occupancy: cell count of YIT 12355/total cell count ×100; for Detected count: mice with A. hadrus detected / mice in group
Experimental: Mice were acclimatized and raised with F2 feed (manufactured by Funabashi Farm Co., Ltd.) for 1 week and then divided into 6 groups such that the average body weight was almost equal among these groups. Then, a control diet (Table 7) was administered thereto for 1 week and replaced with purified feed containing an indigestible material, which was then administered thereto for 2 weeks. A live cell suspension of YIT 12355 was orally administered twice a week a total of 4 times using a probe. At the final day of the test, each mouse was dissected, and the cecal and colonic contents were recovered and examined for an organic acid concentration. Also, the cell count of YIT 12355 in the intestinal tract contents was measured by quantitative PCR, while change in the whole intestinal flora was examined by use of PCR-DGGE (denaturing gradient gel electrophoresis). • Animal used: mouse C57BL/6J (4 weeks old; CLEA Japan, Inc.) • Test period: 3 weeks • Indigestible saccharide used: lactitol and maltitol • Dose of indigestible saccharide: 5% (w/w) • Administered bacterial strain: YIT 12355 • Dose of bacterium: live cell dose: 3.9 to 6.9×10^8 cfu/mouse (administration of a suspension in physiological saline using a probe). Total cell count including dead cells: […] cfu/mouse • Group configuration: 6 groups (5 mice/group) At the 2nd week of administration of the test feed, each mouse was anesthetized with diethyl ether and euthanized by cervical dislocation. After abdominal section, cecal tissues and colonic tissues were excised to recover their contents. The cecal and colonic contents were diluted 10-fold with PBS and subjected to DNA extraction. DNA was extracted by the bead-phenol method from the 10-fold diluted solution of the intestinal tract contents. Specifically, 0.3 g of glass beads (diameter: 0.1 mm), 300 μL of a Tris-SDS solution (a mixed solution of 250 mL of 200 mM Tris-HCl, 80 mM EDTA, pH 9.0, and 50 mL of 10% SDS) and 500 μL of TE saturated phenol were added to 200 μL of the diluted solution of the intestinal tract contents, and the mixture was vigorously shaken for 30 seconds using FASTPREP FP120 cell disruptive equipment (power level: 5.0). After centrifugation at 15,000 rpm for 5 minutes, 400 μL of a phenol/chloroform/isoamyl alcohol (25:24:1) solution was added to 400 μL of the supernatant, and the mixture was shaken for 45 seconds using FASTPREP FP120 cell disruptive equipment (power level: 4.0). After centrifugation at 15,000 rpm for 5 minutes, 25 μL of 3 M sodium acetate (pH 5.4) and 250 μL of isopropanol were added to 250 μL of the supernatant and mixed therewith. After centrifugation at 15,000 rpm for 5 minutes, the supernatant was removed, and 500 μL of 70% ethanol was added thereto, followed by centrifugation again at 15,000 rpm for 5 minutes. The supernatant was removed, and the pellets were dried and dissolved in 1.0 mL of a TE buffer. The obtained DNA solution was diluted 10-fold with purified water to prepare a template DNA solution. For quantitative PCR, 7500 Real-Time PCR System (manufactured by Life Technologies Corp.) was used. The total volume of the reaction solution was set to 20 μL, and SYBR Premix Ex Taq II (Takara Bio Inc.) containing 1.0 μM each of primers, and the template DNA solution were mixed and then subjected to quantitative PCR. The reaction conditions involved heating at 95° C. for 2 minutes, followed by 40 repetitive cycles each involving reactions at 95° C. for 20 seconds, 55° C. for 20 seconds and 72° C. for 50 seconds, and subsequent reaction at 72° C. for 3 minutes. For subsequent Tm value analysis, after reaction at 60° C. for 1 minute, the temperature was elevated at a temperature gradient of 0.2° C./sec to 95° C. during which the fluorescence of SYBR Green I was measured to measure the dissociation temperature (Tm) of the double strand of the amplification product. […]

mouse fresh feces = experiment: Relationship between increase in cell count of YIT 12355 and butyrate concentration in mouse feces culture system
Experimental: 0.8 g of mouse fresh feces obtained 1 week after the start of the single dose test of Example 6 was collected into a sample tube and the tube was transferred into a glove box with the low-temperature and anaerobic state maintained. The feces were diluted with PBS anaerobically substituted in advance (final dilution: 12.5-fold), and a maltitol solution (final concentration: 0.5%) and/or a cultured bacterial solution of YIT 12355 (1% inoculated) was added thereto, followed by anaerobic culture at 37° C. for 24 hours. After the culture, the butyrate concentration was measured by ion-exclusion HPLC using an electric conductivity detector.

With “A. hadrus (Eubacterium hadrum) YIT 12355 (NITE BP-01832)” the “Amount of butyrate produced” value [1] was 19.9 mmol/L, the Total cell count (mouse C57BL/6J; Cecal contents) was 10.9 ± 0.1 log10 cells/g contents and the “Cell count, A. hadrus” value (mouse C57BL/6J; Cecal contents, multiple oral dose) was 7.0 ± 1.1 log10 cells/g contents. For the same substance, the Occupancy (mouse C57BL/6J; Cecal contents) was 0.1 ± 0.1%, the Detected count (mouse C57BL/6J; Cecal contents) was “(4/5)” and the Total cell count (mouse C57BL/6J; Colonic contents) was 11.0 ± 0.0 log10 cells/g contents. The “Cell count, A. hadrus” value (mouse C57BL/6J; Colonic contents, ND: <lower quantification limit 6.0 log10 (cells/g contents)) was 7.2 ± 1.1 log10 cells/g contents, the Occupancy (mouse C57BL/6J; Colonic contents) was 0.1 ± 0.1% and the Detected count (mouse C57BL/6J; Colonic contents) was “(4/5)”. The “cell count of A. hadrus in the intestine” value (mouse C57BL/6J; summary in words of Table 10) was “largely changes neither”, the “occupancy of A. hadrus in the intestine” value (mouse C57BL/6J; summary in words of Table 10) was “largely changes neither” and the “cell count of A. hadrus” value (mouse fresh feces) was “increased”. The butyrate concentration (mouse fresh feces; maltitol 0.5% and/or YIT 12355 1% inoculated, 37° C. 24 hours, FIG. 8) was “increased”.
